Results taken from publication PMC4535766, “Antiprotozoal Activity Profiling of Approved Drugs: A Starting Point toward Drug Repositioning” (PLoS ONE, 2015).
Counter-ions that a name gives are not always drawn. Like-named read-outs stand apart in the source and are kept apart here.

Tests used:
[1] = test system: T. b. rhodesiense strain STIB 900, trypomastigotes; assay: In vitro activity against T. b. rhodesiense, serial drug dilution assay
Experimental: (§1) Drug stock solutions (10mg/ml) were in DMSO (100%). […] Selectivity index (SI) was calculated as IC50 L6 cells/IC50 parasite.

in vitro = conditions: rat
Experimental: as §1

[2] = test system: T. cruzi, strain Tulahuen C4, intracellular amastigotes; assay: microbe, parasite or virus in culture; conditions: for IC50: Trypanosoma cruzi, TULAHUEN
Experimental: as §1

[3] = test system: axenic amastigotes of L. donovani, strain MHOM-ET-67/L82; assay: In vitro activity against L. donovani axenic amastigotes, serial drug dilution assay; format: cell-based, Leishmania donovani; conditions: axenic amastigotes, strain MHOM-ET-67/L82, means of two independent assays, read-out: IC50 L. don. axen.
Experimental: as §1

[4] = test system: L. donovani strain MHOM-ET-67/L82 amastigotes; assay: in vitro; conditions: mouse
Summary of the method: (§2)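 Axenic amastigotes grown at pH 5.4 infected mouse peritoneal macrophages for 4 h before free parasites were washed off. Next day, seven 3-fold drug dilutions (30–0.04 μg/ml) were added for 96 h. Giemsa-stained infected macrophages were counted, burden reduction was taken vs untreated controls, and IC50 came from linear regression.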

[5] = test system: intracellular amastigotes of L. donovani strain MHOM-ET-67/L82; assay: Activity against Leishmania donovani intracellular amastigotes in mouse peritoneal macrophages; conditions: for IC50: read-out: IC50 L. don. intracell
Summary of the method: as §2

P. falciparum strain K1 = assay: In vitro activity against P. falciparum, serial drug dilution assay; conditions: for Activity against P. falciparum (in words): in vitro
Experimental: as §1

[6] = Cytotoxicity on macrophages infected with L. donovani; format: cell-based, mouse; conditions: mouse, macrophages infected with L. donovani; read-out: IC50 Cytotox. mac.inf.
Experimental: (§3) After 24 h 1.2 x 10^5 amastigote L. donovani in 100 μl were added. The amastigotes were taken from an axenic culture grown at pH 5.4. Four hours later, the medium containing free amastigote forms was removed and replaced by fresh medium. The next day the medium was replaced by medium with or without a serial drug dilution of seven 3-fold dilution steps covering a range from 30 to 0.04 μg/ml. Parasite growth in the presence of the drug was compared to control wells. After 96 h of incubation, the medium was removed and the slides fixed with methanol for 10 min followed by staining with a 10% Giemsa solution. Infected and non-infected macrophages were counted for the control cultures and those exposed to the serial drug dilutions. The infection rates were determined. The results were expressed as a percentage reduction in parasite burden compared to control wells, and the IC50 was calculated by linear regression analysis.

[7] = In vitro cytotoxicity with mouse peritoneal macrophages (Alamar Blue); format: cell-based; conditions: mouse
Experimental: After 96 h of incubation, the plates were inspected under an inverted microscope to assure sterility. […] The IC50 values were calculated by linear regression from the sigmoidal dose inhibition curves using SoftmaxPro software (Molecular Devices Cooperation, Sunnyvale, CA, USA).

[8] = test system: macrophages infected with L. donovani; assay: Cytotoxicity on macrophages infected with L. donovani; format: cell-based, mouse
Experimental: as §3

L6 cells = assay: Cytotoxicity on L6 cells
Experimental: as §1

[9] = Trypanosoma brucei, read-out: IC50 T. b. rhod.
[10] = Leishmania donovani, Peritoneal macrophage, in Mus musculus, 96 h
[11] = Plasmodium falciparum, K1, read-out: IC50 P. falc. K1
[12] = macrophages infected with L. donovani, read-out: IC50 Cytotox. mac.inf.
[13] = Selectivity index: IC50 Cytotoxicity macrophages/ IC50 L. donovani

## C[C@@H]1[C@H](O)[C@@H](C)/C=C/C=C/C=C/C=C/C=C/C=C/C=C/[C@H](O[C@@H]2O[C@H](C)[C@@H](O)[C@H](N)[C@@H]2O)C[C@@H]2O[C@](O)(C[C@@H](O)C[C@@H](O)[C@H](O)CC[C@@H](O)C[C@@H](O)CC(=O)O[C@H]1C)C[C@H](O)[C@H]2C(=O)O [Amphotericin B]
[1]; [9]
  IC50: 0.76 µM
[1]; rat
  selectivity ratio: 14
In vitro
  IC50: 10.3 µM
[2]; read-out: IC50 T. cruzi
  IC50: 56.7 µM
[3]; Leishmania donovani
  IC50: 0.34 µM
[4]
  selectivity ratio at 96 h: 95
[5]; [10]
  IC50: 0.31 µM
P. falciparum strain K1; [11]
  IC50: 0.8 µM
P. falciparum strain K1; rat
  selectivity ratio: 13
[6]
  IC50 at 96 h: 32.4 µM
[7]
  IC50 at 96 h: 22.4 µM

## Cc1cc(C2CCCCC2)n(O)c(=O)c1 [Ciclopirox olamine]
[1]; [9]
  IC50: 0.8 µM
In vitro; IC50 Cytotox. L6
  IC50: 1.04 µM
[2]; read-out: IC50 T. cruzi
  IC50: 2.49 µM
[3]; Leishmania donovani
  IC50: 1.64 µM
[4]; mouse peritoneal macrophages versus L. donovani amastigotes, Selectivity index: IC50 Cytotoxicity macrophages/ IC50 L. donovani, axenic or intracellular IC50 not specified
  selectivity ratio at 96 h: 9
[5]; [10]
  IC50: 9.09 µM
P. falciparum strain K1; [11]
  IC50: 3.75 µM
[6]
  IC50 at 96 h: 20.3 µM
[8]; [12]
  IC50: > 11.2 µM
[7]
  IC50 at 96 h: 20.3 µM

## CC(C)/N=c1\cc2n(-c3ccc(Cl)cc3)c3ccccc3nc-2cc1Nc1ccc(Cl)cc1 [Clofazimine]
[1]; Trypanosoma brucei, read-out: T. b. rhod. IC50
  IC50: 7.63 µM
In vitro; Cytotox. L6 IC50
  IC50: 9.97 µM
[2]; read-out: T. cruzi IC50
  IC50: 38.2 µM
[3]; Leishmania donovani
  IC50: 22.4 µM
[4]; [13]
  selectivity ratio at 96 h: ~10
[5]; [10]
  IC50: 0.95 µM
P. falciparum strain K1; Plasmodium falciparum, K1, read-out: P. falc. IC50
  IC50: 4.1 µM
[6]
  IC50 at 96 h: 6.34 µM
[7]
  IC50 at 96 h: 10.7 µM

## Clc1ccccc1C(c1ccccc1)(c1ccccc1)n1ccnc1 [Clotrimazole]
In vitro; IC50 Cytotox. L6
  IC50: 2.99 µM
[5]
  Activity against L. donovani intracellular amastigotes (in words): active with low selectivity
P. falciparum strain K1
  Activity against P. falciparum (in words): active
[7]
  IC50 at 96 h: 32.5 µM

## Clc1ccc(COC(Cn2ccnc2)c2ccc(Cl)cc2Cl)cc1 (stereo not drawn) [Econazole (Nitrate salt), Econazole]
In vitro; IC50 Cytotox. L6
  IC50: 15.6 µM
P. falciparum strain K1
  Activity against P. falciparum (in words): active
[7]
  IC50 at 96 h: 22.8 µM

## OC(Cn1cncn1)(Cn1cncn1)c1ccc(F)cc1F [Fluconazole]
[1]; [9]
  IC50: 273 µM
In vitro; L6 cells, IC50 Cytotox. L6, L6 cells, means of two independent assays
  IC50: > 294 µM
L6 cells; read-out: IC50 Cytotox. L6, L6 cells, means of two independent assays
  IC50: > 294 µM
[2]; read-out: IC50 T. cruzi
  IC50: 9.96 µM
[2]; rat, Selectivity index: IC50 Cytotoxicity L6/ IC50 T. cruzi
  selectivity ratio: > 30
[3]; Leishmania donovani
  IC50: 211 µM
[5]; [10]
  IC50: > 98 µM
[6]
  IC50 at 96 h: > 98 µM

## NNC(=O)c1ccncc1 [Izoniazide]
[1]; read-out: IC50 T. b. rhod., strain STIB 900, trypomastigotes, means of two independent assays
  IC50: > 656 µM
L6 cells
  IC50: > 656 µM
[3]
  IC50: > 656 µM
[5]; intracellular amastigotes in mouse peritoneal macrophages, strain MHOM-ET-67/L82, 96 h
  IC50: > 219 µM
P. falciparum strain K1; read-out: IC50 P. falc. K1, strain K1, means of two independent assays
  IC50: > 36.5 µM
[8]
  IC50: > 219 µM

## O=C(O)c1nn(Cc2ccc(Cl)cc2Cl)c2ccccc12 [Lonidamine]
[1]; [9]
  IC50: 135 µM
In vitro; IC50 Cytotox. L6
  IC50: 273 µM
[2]; read-out: IC50 T. cruzi
  IC50: 177 µM
[3]; Leishmania donovani
  IC50: 8.66 µM
[4]; [13]
  selectivity ratio at 96 h: > 11
[5]; [10]
  IC50: > 93.4 µM
P. falciparum strain K1; [11]
  IC50: > 15.6 µM
[6]
  IC50 at 96 h: > 93.4 µM
[8]; [12]
  IC50: > 93.4 µM

## Clc1ccc(COC(Cn2ccnc2)c2ccc(Cl)cc2Cl)c(Cl)c1 (stereo not drawn) [Miconazole (Nitrate salt), Miconazole]
In vitro; IC50 Cytotox. L6
  IC50: 15.4 µM
P. falciparum strain K1
  Activity against P. falciparum (in words): active
[7]
  IC50 at 96 h: 23.9 µM
